Among the data in ChEMBL document CHEMBL4393693, “Synthesis and Structure-Activity relationship of 1-(5-isoquinolinesulfonyl)piperazine analogues as inhibitors of Mycobacterium tuberculosis IMPDH” (Eur J Med Chem, 2019) are IC50 values, retold here.

A short description of this experiment: Inhibition of recombinant N-terminal His6-tagged Mycobacterium tuberculosis H37Rv IMPDH expressed in Escherichia coli BL21 (DE3) cells assessed as reduction of NAD+ to NADH using IMP and NAD+ as substrate treated 1 min after substrate incubation with enzyme by UV-visible spectrophotometry.

For orientation: IC50 means the concentration that gives 50% inhibition. Consider `O=C(NCCNS(=O)(=O)c1cccc2cnccc12)C1CCCCC1`, for which the IC50 is 500 to 1500 nM.
